Experimental data as given in patent publication US20230107770A1, “METHOD OF ENHANCING IMMUNOTHERAPY USING ER STRESS PATHWAY INHIBITORS” (H. LEE MOFFITT CANCER CENTER AND RESEARCH INSTITUTE, INC., priority 2020, published 2023).

Key:
[1] = cited from earlier work
[2] = Blood glucose and pancreatic islets in B16-bearing mice; type: in vivo; conditions: B16-bearing mice treated for a week; GSK2606414 25 mg/kg or AMG-44 12 mg/kg; day 17
From the text: Hematoxylin and Eosin (H&E) stained slides were scanned in an Aperio AT2 whole slide scanner (Leica Biosystems Inc.) equipped with a 20×0.7NA objective lens Images were created at 0.5 micron per pixel resolution and imported into Definiens Tissue Studio software v4.7 (Definiens AG) for analysis. Islets were found using a semi-automated segmentation process. First an automatic segmentation was applied to the image to create contour lines around objects within the image. Objects that contained islets were classified as such and remaining objects were classified as non-islet tissue. Next, adjacent objects of the same classification were merged together to clean up the segmentation. Segmented images were analyzed to provide the total area of islets Immunofluorescence for mouse insulin in pancreas tissue sections was performed as we described (Sultan et al., 2017). Labeled samples were scanned with a Zeiss Imager Z2 Upright FL microscope with a 10× objective lens using the tile scan function. Images were created at a
0.65 micron per pixel resolution and imported into the Definiens Tissue Studio software v4.7 (Definiens AG) for islet detection and analysis. Islets were detected using a semi-automated segmentation process. First, an automatic segmentation was applied to the image to detect the tissue. Then, the software was trained to detect islet vs. non-islet tissue within the image. In order to remove false detected islets caused by background staining, detected islets larger than 150,000 square microns and less than 600 square microns were reclassified to non-islet tissue. Segmented images were then analyzed to provide the fluorescent intensity of islets and total tissue area.

CD8+ TILs = assay: Flow cytometry of tumor-infiltrating CD8+ T cells from treated mice; type: in vivo
Description: All analysis was performed using FlowJo version 11 software.

B16 tumors = assay: s.c. B16 melanoma tumor model in mice; type: in vivo
tumor-MDSC [3] = assay: Ex vivo suppression assay: tumor-MDSC co-cultured with primed CFSE-labeled T cells; type: cell-based, mice
Description: CD3^+ T cells were enriched using mouse or human T cell negative selection kits (MagniSort, Invitrogen) from the spleen and lymph nodes of C57BL/6 mice; or from purchased human buffy-coat units (One-Blood, Tampa, Fla.). Purity ranged between 95% and 99% as tested by flow cytometry. For antigen-specific priming studies, CD8^+ T cells were enriched using negative selection kits from the spleens of OT-I mice previously activated with OVA257-264 (SIINFEKL) for 48 hours. Tumor-MDSC were isolated from cellular suspensions of digested tumors followed by positive selection (MojoSort Streptavidin Nanobeads, Biolegend) using anti-Gr1 (Clone RB6-8C5, eBioscience) or anti-CD11b-biotinylated antibodies (Clone M1/70, StemCell Technologies, Vancouver). Also, M-MDSC (CD11b^+Gr1^+Ly6G^lowLy6C^high), PMN-MDSC (CD11b^+Gr1^+Ly6G^+Ly6C^low), macrophages (CD11b^+Gr1^negF4/80^+CD11c^neg), and myeloid DCs (CD11b^+Gr1^negF4/80^negCD11c^+) were sorted from tumors in a FACSAriaII (BD Biosciences).
(§1) Murine BM-MDSC (ratio 1:1/8) or tumor-MDSC (ratio 1:1/4) were co-cultured with negatively selected CD3^+ T cells in a 96 well plate bound α-CD3 and α-CD28 (1 μg/ml each, eBioscience) for 3 days. T cell proliferation was assessed with Carboxyfluorescein succinimidyl ester (CFSE) or Cell-trace violet (Invitrogen) dye dilution detected by flow cytometry. For human studies, MDSC were co-cultured with enriched CD3^+ T cells activated with soluble α-CD3 (1 μg/ml, clone OKT3) and α-CD28 (0.5 μg/ml, clone L293) for 3 days in a 96 well plate bound with goat anti-mouse IgG (10 μg/ml). Results are expressed as percentage of proliferating T cells, determined by the dilution of fluorescence compared with non-stimulated T cells.

murine BM-MDSC = assay: In vitro suppression assay with murine BM-MDSC; type: cell-based, mouse; conditions: for potential of Thaps-treated Eif2ak3^KO-Tek BM-MDSC to impair T cell proliferation: 3 hours pre-treatment, Resveratrol 100 μM or D,L-Sulphoraphane 20 μM
Description: (§2) Mouse BM-MDSC were generated after culturing BM precursors with GM-CSF and G-CSF (20 ng/ml each) for 4 days. In vitro generated MDSC were treated with either LLC tumor explant supernatants (TES, since day 0) or Thaps (200 nM, for the last 24 hours of culture). Human BM-MDSC were developed after culturing BM or peripheral blood precursors from healthy donors with GM-CSF and IL-6 (10 ng/ml each) for a period of 6 days (Thevenot et al., 2014). To induce UPR activation, MDSC were treated with either supernatants from renal cell carcinoma cells 786-0 (hTES) for 6 days (Rodriguez et al., 2009) or Thaps during the last 24 hours before collection (200 nM). In some experiments, MDSC were pre-incubated for 3 hours with Resveratrol (100 μM, Sigma-Aldrich), D,L-Sulphoraphane (20 μM), AMG-44 (5 μM), or TUDCA (500 nM) before treating with Thaps.
as §1

Ifnβ1 mRNA = assay: Quantitative PCR of Ifnβ1 mRNA in MDSC; type: cell-based; conditions: mice treated with SFRN vs untreated PERK-null mice
Description: Total RNA was isolated from MDSC using TRIzol (Life Technologies). Reverse transcription was performed using Verso cDNA Synthesis Kit (Thermo Scientific). Quantitative PCR reactions were prepared by using Bio-Rad SYBR green master mix and performed on an Applied Biosystems thermocycler (7900 HT) using primers described in Key Resources Table

LLC tumors = assay: s.c. LLC tumor model in mice; type: in vivo
tumor-MDSC [4] = conditions: LLC-bearing mice treated with SFRN
Description: For surface staining, cells were labelled with the appropriate antibodies in the presence of Fc blocker. For intracellular staining, surface-labeled cells were fixed with Cytofix/Cytoperm™ Solution (BD Biosciences), washed in Perm/Wash™ 1× solution, and labelled with intracellular antibodies. Cells were then washed in Perm/Wash™ 1× and PBS. Live vs. dead cell discrimination was performed prior to antibody labeling by Zombie Fixable Viability dye (Biolegend). Ex vivo intracellular staining for IL-12 and TNFα was performed on isolated cells after stimulation for 6 hours with LPS (1 μg/ml, Sigma Aldrich) in the presence of Golgi stop (0.8 μl/ml, BD Biosciences). For IFNγ staining, cells were incubated for 5 hours with phorbol myristate acetate (PMA, 750 ng/mL, Sigma Aldrich) and ionomycin (50 μg/mL, Sigma-Aldrich) in the presence and Golgi stop (0.8 μl/ml). For ER-tracker and Mitotracker staining, cells were probed with 100 nM of ER tracker green or 200 nM of Mitotracker green (Invitrogen) and then stained for surface markers. For Mitochondrial membrane potential, cells were stained with JC-1 flow cytometry assay kit (Cayman chemicals) followed by surface markers staining. ROS were detected by DCFDA (10 μM) or Dihydroethidium (DHE, 10 μM). Data acquisition was performed in a CytoFLEX II (Beckman Coulter) or LSRII (BD Biosciences). All analysis was performed using FlowJo version 11 software.

tumor-MDSC [5] = conditions: tumor-bearing Eif2ak3^KO-Lyz2 mice treated with SFRN vs untreated or Eif2ak3^Flox
Description: Oxygen consumption rate (OCR) through mitochondrial stress test and extracellular acidification rate (ECAR) by glycolysis stress profile were measured using a XF96 extracellular flux analyzer (Seahorse Bioscience). MDSC were plated onto CellTak pre-coated wells (1×10^5 cells/well in triplicate), and subjected to mitochondrial stress and glycolysis stress protocols using specific non-buffered XF base mediums. For OCR, cells were analyzed under basal conditions and in response to 2 μM oligomycin, 2 μM fluorocarbonyl-cyanide-phenylhydrazone (FCCP), and 0.5 μM rotenone. For ECAR, cells were plated in XF media lacking glucose and monitored under basal conditions and in response to 10 mM glucose, 10 μM oligomycin, and 100 mM 2-Deoxy-D-glucose (2-DG). Final values were obtained after protein normalization among the conditions.

[6] = tested on: tumor-MDSC from Pan02-OVA-ZsGreen tumors; assay: Cross-presentation by tumor-MDSC from Pan02-OVA-ZsGreen tumors; type: cell-based; conditions: TUDCA-treated mice bearing Pan02-OVA-ZsGreen tumors
Description: For antigen loading experiments, MDSC were sorted from LLC tumors and then pulsed with 1 μg/ml complete ovalbumin (OVA). After 16 hours, cells were washed twice and 2.5×10^4 MDSC co-cultured with 1×10^5 CFSE-labeled naïve CD8^+ T cells from spleens of OT-I mice (ratio 0.25:1). Positive controls included co-cultures of OT-I T cells with GM-CSF plus IL-4-derived BM-DCs loaded with 1 μg/ml complete OVA. For TME cross-priming assays, 1.25×10^4 MDSC from Pan02-Ova-ZsGreen tumors were co-cultured with 5×10^4 naïve CD8^+ T cells (1/4:1) from spleens of OT-I mice and labelled with Cell-trace violet. Positive control wells included OT-I T cells co-cultured with GM-CSF plus IL-4-derived BM-DCs loaded with 1 μg/ml OVA257-264 peptide. T cell proliferation was measured after 3 days of co-culture.

human BM-MDSC = assay: In vitro suppression assay with human BM-MDSC; type: cell-based
Description: as §2
as §1, with “For human studies, MDSC were co-cultured with enriched CD3^+ T cells activated with soluble α-CD3 (1 μg/ml, clone OKT3) and α-CD28 (0.5 μg/ml, clone L293) for 3 days in a 96 well plate bound with goat anti-mouse IgG (10 μg/ml).” left out

PERK = assay: Immunoblot of PERK and phospho-PERK in MDSC; type: cell-based, mice
From the text: (§3) Equal protein amounts of total and nuclear cell lysates were electrophoresed in 8 or 10% Tris-Glycine gels (Novex-Invitrogen), transferred to PVDF membranes by iBlot™ Gel Transfer Device (ThermoFisher), and blotted with the corresponding primary and secondary antibodies described in Key Resources Table. For nuclear fraction isolation, cells were lysed using NE-PER Nuclear and Cytoplasmic extraction kit (ThermoFisher). Membrane-bound immune complexes were detected by ChemiDoc™ Imaging System (Bio-Rad, #17001401).

Arginase I = assay: Immunoblot of Arginase I in tumor-MDSC; type: cell-based; conditions: mice treated with TUDCA vs vehicle
From the text: as §3

IRE1α = assay: Immunoblot of IRE1α and phospho-IRE1α in MDSC; type: cell-based, mice
From the text: as §3

[7] = LLC, SFRN 25 mg/kg i.p., 3 days per week
[8] = mice treated with TUDCA vs controls
[9] = LLC-bearing mice, Thaps 100 μg/kg i.p. vs vehicle
[10] = BM-MDSC, Thaps 200 nM, last 24 hours

Structure (SMILES): Cn1cc(-c2ccc3c(c2)CCN3C(=O)Cc2cccc(C(F)(F)F)c2)c2c(N)ncnc21 [GSK-2606414]
- hyperglycemia at high doses ([1]; 150 mg/kg, orally twice a day, previous studies): induced hyperglycemia
- limitation for therapeutic use ([1]; Yu et al., 2015): induction of hyperglycemia as a result of pancreatic islet degeneration
- glucose levels in the serum [2]: failed to show alterations in glucose levels
- frequency of IFNγ-producing CD8+ T cells in tumors (CD8+ TILs; B16, GSK2606414 25 mg/kg or AMG-44 12 mg/kg, 17 days post-tumor injection): amplified the frequency of IFNγ-producing CD8^+ T cells in tumors
- tumor growth (B16 tumors; B16-bearing mice, GSK-2606414 25 mg/kg i.p. daily vs vehicle): Delayed tumor growth
- tumor growth (B16 tumors; B16, daily i.p. GSK2606414 25 mg/kg or AMG-44 12 mg/kg from day 7): delayed tumor growth
- immunoinhibitory activity of MDSC (tumor-MDSC [3]; MDSC from tumors of GSK-2606414 treated B16-bearing mice): lower immunoinhibitory activity of MDSC

Structure (SMILES): Oc1ccc(C=Cc2cc(O)cc(O)c2)cc1 [Resveratrol]
- potential of Thaps-treated Eif2ak3^KO-Tek BM-MDSC to impair T cell proliferation (murine BM-MDSC): partially restored the potential

Structure (SMILES): C[S+]([O-])CCCCN=C=S (stereo not drawn) [SFRN, Sulforaphane]
- Ifnβ1 mRNA in tumor-MDSC from Eif2ak3^KO-Lyz2 mice (Ifnβ1 mRNA): reduced Ifnβ1 mRNA levels
- anti-tumor effects found in Eif2ak3^KO-Lyz2 mice (LLC tumors; [7]): disabled the anti-tumor effects
- tumor progression in Eif2ak3^Flox mice (LLC tumors; [7]): delaying tumor progression
- ROS levels in tumor Eif2ak3^KO-Lyz2 MDSC (tumor-MDSC [4]): reduced ROS levels
- potential of Thaps-treated Eif2ak3^KO-Tek BM-MDSC to impair T cell proliferation (murine BM-MDSC): partially restored the potential
- ROS levels and immunoregulatory potential of control MDSC (tumor-MDSC [3]; LLC-bearing Eif2ak3^Flox mice treated with SFRN): without affecting controls
- immunoregulatory potential of tumor Eif2ak3^KO-Lyz2 MDSC (tumor-MDSC [3]; LLC-bearing mice treated with SFRN, 1:1/4): restored the immunoregulatory potential
- OCR of tumor-MDSC (tumor-MDSC [5]): elevated OCR

Structure (SMILES): C[C@H](CCC(=O)NCCS(=O)(=O)O)[C@H]1CC[C@H]2[C@@H]3[C@@H](O)C[C@@H]4C[C@H](O)CC[C@]4(C)[C@H]3CC[C@]12C [TUDCA, Tauroursodeoxycholic acid]
- capacity of tumor-MDSC to prime OT-I T cell proliferation [6]: higher capacity to prime OT-I T cell proliferation
- expression of SIINFEKL-bound H-2K^b in tumor-MDSC [6]: heightened expression
- anti-tumor actions in immunodeficient Rag1^KO mice (LLC tumors; LLC tumors, TUDCA, Rag1^KO vs wild type mice): not found
- tumor growth (LLC tumors; established LLC tumors, TUDCA 250 mg/kg daily after day 6 vs vehicle): delayed tumor growth
- ability to block T cell proliferation (human BM-MDSC; human BM-MDSC conditioned with hTES, TUDCA in culture): impaired the ability
- ability to block T cell proliferation (murine BM-MDSC; murine BM-MDSC developed after exposing BM-iMC to TES, TUDCA in culture): impaired the ability
- expansion of recently activated CD69+ CD44+ CD8+ T cells in tumors (CD8+ TILs; B16-bearing mice treated with TUDCA): Higher expansion
- EGSRNQDWL-H-2D^b-tetramer+ CD8+ T cells recognizing gp100 (CD8+ TILs; B16-bearing mice, single treatment): promoted the spontaneous expansion
- recently activated CD69+ CD44+ CD8+ T cells (CD8+ TILs; B16-bearing mice, single treatment (anti-Gr1 experiment)): promoted the spontaneous expansion
- expansion of recently activated CD69+ CD44+ CD8+ T cells in tumors (CD8+ TILs; LLC-bearing mice treated with TUDCA): Higher expansion
- expression of phospho-PERK in tumor-MDSC (PERK; [8]): lower expression of phospho-PERK
- tumor growth (B16 tumors; established B16 tumors, TUDCA 250 mg/kg daily after day 6 vs vehicle): delayed tumor growth
- levels of Arginase I in tumor-MDSC (Arginase I): reduced levels of the inhibitory factor Arginase I
- expression of phospho-IRE1α in tumor-MDSC (IRE1α; [8]): lower expression of phospho-PERK and phospho-IRE 1α
- ability to block T cell proliferation (tumor-MDSC [3]; LLC tumor-MDSC pre-treated ex vivo with TUDCA for 24 hours): impaired the ability
- ability of tumor-MDSC to block T cell proliferation (tumor-MDSC [3]; tumor-MDSC (1:1/4) from LLC or B16 bearing mice treated with TUDCA vs vehicle): lower ability to block T cell proliferation

Structure (SMILES): C/C=C(/C)C(=O)O[C@H]1C(C)=C2[C@H]([C@@H]1OC(=O)CCCCCCC)[C@@](C)(OC(C)=O)C[C@H](OC(=O)CCC)[C@@]1(O)[C@H]2OC(=O)[C@@]1(C)O [Thaps, Thapsigargin]
- expansion of splenic-MDSC (LLC tumors; [9]): increased the expansion of splenic-MDSC
- tumor progression (LLC tumors; [9]): promoted tumor progression
- ability to block T cell proliferation (human BM-MDSC; human BM-MDSC, Thaps, last 24 hours): enhanced ability to block T cell proliferation
- ability to block T cell proliferation (murine BM-MDSC; murine BM-MDSC, Thaps 200 nM, last 24 hours): enhanced ability to block T cell proliferation
- total and phosphorylated PERK (PERK; [10]): upregulation of total and phosphorylated PERK
- total and phosphorylated IRE1α (IRE1α; [10]): upregulation of total and phosphorylated PERK and IRE1α
- immunoregulatory potential of tumor-MDSC (tumor-MDSC [3]; tumor-MDSC from LLC-bearing mice treated with Thaps): elevated the immunoregulatory potential of tumor-MDSC
